28 compounds from patent publication US20240116857A1 (St. Louis University, priority 2022, published 2024) can be followed below.

Where only a bound is given, the exact number is not on record here.

The first test concerns E. coli BW25113. Nature of the test: MIC, 2-fold broth dilution, E. coli BW25113. In kind it is cell-based, Escherichia coli. The following applies: Escherichia coli; E. coli BW25113; asterisk in column 1-10; read-out: MIC, μM 1-10.
For the compound `C[N+](C)(C)c1ccc(NC(=O)c2ccc(-c3ccc(C(=O)Nc4ccc([N+](C)(C)C)c(F)c4)cc3)cc2)cc1F` [Example 77, 2-fluoro-4-(4′-{[3-fluoro-4-(trimethylazaniumyl)phenyl]carbamoyl}-[1,1′-biphenyl]-4-amido)-N,N,N-trimethylanilinium], the minimum inhibitory concentration (MIC) fell in the range of 1 to 10 µM.
Still for that read-out and setting: with `C[n+]1ccc(-c2ccc(NC(=O)c3ccc(C(=O)Nc4ccc(-c5cc[n+](C)cc5)cc4)cc3)cc2)cc1` [Example 56] the figure was 1 to 10 µM.

The test is the same for the next values; noted with them: Escherichia coli; E. coli BW25113; asterisk in column 10-50; read-out: MIC, μM 10-50.
As for `C[n+]1ccc(NC(=O)c2ccc(C(=O)Nc3ccc(Nc4cc[n+](C)cc4)cc3)cc2)cc1` [Example 62, 1-methyl-4-(4-((4-((1-methylpyridin-1-ium-4-yl)amino)phenyl)carbamoyl)benzamido)pyridin-1-ium], the MIC lay within 10 to 50 µM.

The test is the same for the next values; noted with them: Escherichia coli; E. coli BW25113; asterisk in column >50; read-out: MIC, μM >50.
On to `O=C(Nc1ccc(Oc2ccncc2)cc1)c1ccc(C(=O)Nc2ccc(Oc3ccncc3)cc2)c([N+](=O)[O-])c1` [Example 83, 2-nitro-N^1,N^4-bis(4-(pyridin-4-yloxy)phenyl)terephthalamide], for which the minimum inhibitory concentration (MIC) was greater than 50 µM.
Consider `CN1CCC(Nc2ccc(NC(=O)c3ccc(C(=O)Nc4ccc(NC5CCN(C)CC5)cc4)cc3)cc2)CC1` [Example 50, N^1,N^4-bis(4-((1-methylpiperidin-4-yl)amino)phenyl)terephthalamide], for which the minimum inhibitory concentration (MIC) is greater than 50 µM.
Same read-out and setting: in the case of `C#CCCCOc1cc(NC(=O)c2ccc(-c3ccc(C(=O)Nc4ccc([N+](C)(C)C)c(F)c4)cc3)cc2)ccc1[N+](C)(C)C` [Example 122] it was greater than 50 µM.
Still for that read-out and setting: with `O=S(=O)(Nc1ccncc1)c1ccc(-c2ccc(S(=O)(=O)Nc3ccncc3)cc2)cc1` [Example 26, N^4,N^4′-di(pyridin-4-yl)-[1,1′-biphenyl]-4,4′-disulfonamide] the figure was greater than 50 µM; with `CN(C)c1ccc(NC(=O)c2ccc(-c3ccc(C(=O)Nc4ccc(N(C)C)c(F)c4)cc3C(F)(F)F)cc2)cc1F` [Example 114], greater than 50 µM.
As for `C[n+]1ccc(CNC(=O)c2ccc(-c3ccc(C(=O)NCc4cc[n+](C)cc4)cc3)cc2)cc1` [Example 100, 4,4′-((([1,1′-biphenyl]-4,4′-dicarbonyl)bis(azanediyl))bis(methylene))bis(1-methylpyridin-1-ium)], the minimum inhibitory concentration (MIC) was greater than 50 µM.
Consider `C[N+](C)(C)c1ccc(NC(=O)c2ccc(-c3ccc(C(=O)Nc4ccc([N+](C)(C)C)c(OCCCCCCCCc5cn(CCOCCOCCONC(=O)CCCC[C@@H]6SC[C@@H]7NC(=O)N[C@@H]76)nn5)c4)cc3)cc2)cc1F` [Example 135], for which the minimum inhibitory concentration (MIC) is greater than 50 µM.
Still for that read-out and setting: with `CN(C)c1ccc(NC(=O)c2ccc(-c3ccc(C(=O)Nc4ccc([N+](C)(C)C)c(F)c4)cc3)cc2)cc1F` [Example 125] the figure was greater than 50 µM; with `Cc1cnccc1NC(=O)c1ccc(-c2ccc(C(=O)Nc3ccncc3C)cc2)cc1` [Example 28, N^4,N^4′-bis(3-methylpyridin-4-yl)-[1,1′-biphenyl]-4,4′-dicarboxamide], greater than 50 µM.
On the same count and under the same terms, in the case of `C[N+](C)(C)c1ccc(NC(=O)c2ccc(-c3ccc(C(=O)Nc4ccc([N+](C)(C)C)c(C(F)(F)F)c4)cc3)cc2)cc1C(F)(F)F` [Example 82, 4,4′-(([1,1′-biphenyl]-4,4′-dicarbonyl)bis(azanediyl))bis(N,N,N-trimethyl-2-(trifluoromethyl)benzenaminium)] it was greater than 50 µM; in that of `COc1cc(N(C)C)ccc1NC(=O)c1ccc(-c2ccc(C(=O)Nc3ccc(N(C)C)cc3OC)cc2)cc1` [Example 31, N^4,N^4′-bis(4-(dimethylamino)-2-methoxyphenyl)-[1,1′-biphenyl]-4,4′-dicarboxamide], greater than 50 µM; in that of `C[N+](C)(C)c1ccc(NC(=O)c2ccnc(-c3cc(C(=O)Nc4ccc([N+](C)(C)C)cc4)ccn3)c2)cc1` [Example 78, 4,4′-(([2,2′-bipyridine]-4,4′-dicarbonyl)bis(azanediyl))bis(N,N,N-trimethylbenzenaminium)], greater than 50 µM.
The same measure, in the same setting: in the case of `Cc1cc(C(=O)Nc2ccc([N+](C)(C)C)c(F)c2)ccc1-c1ccc(C(=O)Nc2ccc([N+](C)(C)C)c(F)c2)cc1` [Example 91, 4,4′-((2-methyl-[1,1′-biphenyl]-4,4′-dicarbonyl)bis(azanediyl))bis(2-fluoro-N,N,N-trimethylbenzenaminium)] it was greater than 50 µM.
As to `CN(C)c1ccc(NC(=O)c2ccc(-c3ccc(C(=O)Nc4ccc(N(C)C)cc4)cn3)nc2)cc1` [Example 72, N^5,N^5′-bis(4-(dimethylamino)phenyl)-[2,2′-bipyridine]-5,5′-dicarboxamide], the minimal inhibitory concentration (MIC) is greater than 50 µM.
Same read-out and setting: with `C#CCCOc1cc(NC(=O)c2ccc(-c3ccc(C(=O)Nc4ccc(N(C)C)c(F)c4)cc3)cc2)ccc1N(C)C` [Example 99, N^4-(3-(but-3-yn-1-yloxy)-4-(dimethylamino)phenyl)-N^4′-(4-(dimethylamino)-3-fluorophenyl)-[1,1′-biphenyl]-4,4′-dicarboxamide] the figure was greater than 50 µM.
As for `O=C(Nc1ccc(Nc2ccncc2)cc1)c1ccc(C(=O)Nc2ccc(Nc3ccncc3)cc2)c(Cl)c1` [Example 19, 2-chloro-N^1,N^4-bis(4-(pyridin-4-ylamino)phenyl)terephthalamide], the MIC is greater than 50 µM.
On the same count and under the same terms, with `O=C(Nc1ccncc1)[C@H]1CC[C@H](C(=O)Nc2ccncc2)CC1` [Example 5, (E)-N^1,N^4-di(pyridin-4-yl)cyclohexane-1,4-dicarboxamide] the figure was greater than 50 µM; with `CN(C)c1ccc(NC(=O)c2ccc(-c3ccc(C(=O)Nc4ccc(N(C)C)c(F)c4)cc3)cc2)cc1F` [Example 75, N^4,N^4′-bis(4-(dimethylamino)-3-fluorophenyl)-[1,1′-biphenyl]-4,4′-dicarboxamide], greater than 50 µM; with `O=C(Nc1ccc(Nc2ccncc2)cc1)c1ccc(Cc2ccc(C(=O)Nc3ccc(Nc4ccncc4)cc3)cc2)cc1` [Example 48], greater than 50 µM.
As to `C[N+](C)(C)C1CCC(NC(=O)c2ccc(-c3ccc(C(=O)NC4CCC([N+](C)(C)C)CC4)cc3)cc2)CC1` (stereo not shown) [Example 61, 4,4′-(([1,1′-biphenyl]-4,4′-dicarbonyl)bis(azanediyl))bis(N,N,N-trimethylcyclohexan-1-aminium)], the minimal inhibitory concentration (MIC) is greater than 50 µM.
The same measure, in the same setting: with `C[N+](C)(C)c1ccc(NC(=O)c2ccc(-c3ccc(C(=O)Nc4ccc([N+](C)(C)C)c(Cl)c4)cc3)cc2)cc1F` [Example 131] the figure was greater than 50 µM; with `C[n+]1ccc(NC(=O)c2ccc3cc(C(=O)Nc4cc[n+](C)cc4)ccc3c2)cc1` [Example 4, 4,4′-((naphthalene-2,6-dicarbonyl)bis(azanediyl))bis(1-methylpyridin-1-ium)], greater than 50 µM.
The same measure, in the same setting: with `C#CCCCCOc1cc(NC(=O)c2ccc(-c3ccc(C(=O)Nc4ccc(N(C)C)c(F)c4)cc3)cc2)ccc1N(C)C` [Example 95, N^4-(4-(dimethylamino)-3-(hex-5-yn-1-yloxy)phenyl)-N^4′-(4-(dimethylamino)-3-fluorophenyl)-[1,1′-biphenyl]-4,4′-dicarboxamide] the figure was greater than 50 µM; with `CN(C)c1ccc(NC(=O)c2ccc(-c3ccc(C(=O)Nc4ccc(N(C)C)c(F)c4)cc3)cc2)cc1` [Example 112], greater than 50 µM.
The same measure, in the same setting: in the case of `O=C(Nc1ccc(Nc2ccncc2)cc1)c1ccc(C(=O)Nc2ccc(Nc3ccncc3)cc2)c(Br)c1` [Example 68, 2-bromo-N^1,N^4-bis(4-(pyridin-4-ylamino)phenyl)terephthalamide] it was greater than 50 µM.

Broadly, the MIC is the least concentration at which growth counts as inhibited.
